# Test results from the Kinase Knowledgebase extract (Sharma et al. 2016).
# pIC50: −log10 of the molar value.
# How the values were obtained:
# EGFR (human) [1] = molecular target: EGFR (human) (UniProt P00533); conditions: a431
# EGFR (human) [2] = molecular target: EGFR (human) (UniProt P00533); conditions: mcf7
# EGFR (human) [3] = molecular target: EGFR (human) (UniProt P00533); conditions: a549
# Sequence of EGFR (human) (P00533 whole entry, looked up): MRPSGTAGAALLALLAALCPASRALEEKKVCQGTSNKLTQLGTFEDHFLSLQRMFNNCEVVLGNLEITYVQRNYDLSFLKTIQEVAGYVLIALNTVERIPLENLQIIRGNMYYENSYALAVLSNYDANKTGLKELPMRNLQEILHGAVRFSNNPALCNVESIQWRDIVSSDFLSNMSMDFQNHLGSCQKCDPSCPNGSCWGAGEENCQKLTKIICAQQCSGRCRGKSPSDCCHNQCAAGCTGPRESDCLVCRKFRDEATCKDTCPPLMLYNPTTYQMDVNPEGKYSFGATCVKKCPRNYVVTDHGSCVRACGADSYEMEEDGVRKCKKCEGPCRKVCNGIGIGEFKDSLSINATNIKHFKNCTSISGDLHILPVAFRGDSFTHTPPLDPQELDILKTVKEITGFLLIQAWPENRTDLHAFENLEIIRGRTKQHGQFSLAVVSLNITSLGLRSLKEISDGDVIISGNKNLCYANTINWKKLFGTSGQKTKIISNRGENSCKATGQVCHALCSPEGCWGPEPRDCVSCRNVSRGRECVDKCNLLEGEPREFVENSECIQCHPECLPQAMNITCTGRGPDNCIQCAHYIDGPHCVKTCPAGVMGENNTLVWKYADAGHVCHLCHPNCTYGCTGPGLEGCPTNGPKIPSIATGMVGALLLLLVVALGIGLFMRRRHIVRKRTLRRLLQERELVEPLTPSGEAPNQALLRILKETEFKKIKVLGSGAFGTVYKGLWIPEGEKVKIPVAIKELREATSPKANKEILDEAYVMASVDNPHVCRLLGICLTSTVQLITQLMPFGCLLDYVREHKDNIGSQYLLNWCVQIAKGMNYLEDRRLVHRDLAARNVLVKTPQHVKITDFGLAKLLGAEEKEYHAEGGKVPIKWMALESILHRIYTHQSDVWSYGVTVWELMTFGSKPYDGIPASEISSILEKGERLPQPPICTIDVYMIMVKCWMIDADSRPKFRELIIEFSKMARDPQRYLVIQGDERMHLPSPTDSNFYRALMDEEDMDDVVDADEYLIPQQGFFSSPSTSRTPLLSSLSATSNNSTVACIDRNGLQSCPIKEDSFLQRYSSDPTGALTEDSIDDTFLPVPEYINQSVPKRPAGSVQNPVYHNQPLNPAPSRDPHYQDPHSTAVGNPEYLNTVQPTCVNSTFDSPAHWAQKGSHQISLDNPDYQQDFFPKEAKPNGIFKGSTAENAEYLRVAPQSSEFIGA
pIC50 (EGFR (human) [1]),pIC50 (EGFR (human) [2]),pIC50 (EGFR (human) [3]),SMILES
6.17,,,Cc1cccc(Nc2ncnc3cc4c(cc23)OCCO4)c1
5.20,,,Fc1cc(Br)ccc1Nc1ncnc2cc3c(cc12)OCCO3
4.50,4.03,3.88,O=C(Nc1ccc2ncnc(Nc3cccc(Br)c3)c2c1)c1cccc2c1OCCO2
6.11,,,FC(F)(F)c1cccc(Nc2ncnc3cc4c(cc23)OCCO4)c1
4.77,4.84,4.10,Brc1cccc(Nc2ncnc3ccc(NCc4ccc5c(c4)OCCO5)cc23)c1
4.53,4.11,4.04,O=C(Nc1ccc2ncnc(Nc3cccc(Cl)c3)c2c1)C1COc2ccccc2O1 (centres undefined)
4.15,3.82,< 3.82,O=C(Nc1ccc2ncnc(Nc3cccc(Cl)c3)c2c1)c1cccc2c1OCCO2
4.99,4.67,3.99,Brc1cccc(Nc2ncnc3ccc(NCc4ccc5c(c4)OCO5)cc23)c1
4.19,3.82,3.95,O=C(Nc1ccc2ncnc(Nc3cccc(Br)c3)c2c1)C1COc2ccccc2O1 (centres undefined)
4.70,4.50,4.17,Clc1cccc(Nc2ncnc3ccc(NCc4ccc5c(c4)OCCCCO5)cc23)c1
5.42,5.21,4.35,Clc1cccc(Nc2ncnc3ccc(NCc4ccc5c(c4)OCCCO5)cc23)c1
5.39,5.14,4.65,Brc1cccc(Nc2ncnc3ccc(NCc4ccc5c(c4)OCCCO5)cc23)c1
4.65,4.32,< 3.83,Brc1cccc(Nc2ncnc3ccc(NCc4ccc5c(c4)OCCCCO5)cc23)c1
6.12,,,Brc1cccc(Nc2ncnc3cc4c(cc23)OCCO4)c1
